Measured values from US9513294B2, “Megastokes amino-triazolyl-BODIPY compounds and applications to live neuron staining and human serum albumin FA1 drug site probing” (National University of Singapore, priority 2012, dated 2016).
Blank lines part the entries; values can stand above or below the compound they belong to.

What was measured:
[1] = Quantum yield measurements versus Acridine Yellow in EtOH; type: physicochemical; conditions: for φ (%): quantum yield; for φ (quantum yield): excitation 460 nm
Outline: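 Fluorescence quantum yield is relative to Acridine Yellow in EtOH (Φ 0.47), with excitation at 460 nm. Integrated emission at 510–700 nm was corrected for absorbance at the excitation wavelength and for solvent refractive index.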

[2] = Absorbance and fluorescence emission spectra (SpectraMax M2); type: physicochemical; conditions: for λmax Absorp. (nm) / λmax Emission (nm): MKCA compound library; for λmax Absorp. (nm) / λmax Abs. (nm): absorbance maximum; for λmax Emission (nm) / λmax Em. (nm): fluorescence emission maximum; for λmax Abs. (nm) / λmax Em. (nm): MKAC compound library
Outline: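 Absorbance and emission maxima measured on a SpectraMax M2 spectrophotometer, which also gave quantum yield data; analysis in GraphPrism.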

φ (%) ([1]; MKCA compound library): 26.25%
λmax Absorp. (nm) [2]: 463 nm
λmax Emission (nm) [2]: 560 nm
Compound: CN(Cc1ccccc1)Cc1cn(-c2ccc3n2[B-](F)(F)[N+]2=C(NCc4cc(F)cc(F)c4)C=CC2=C3c2ccc(NC(=O)CCl)cc2)nn1 [MKCA412-18]

φ (quantum yield) ([1]; MK library, Table 5): 0.33%
λmax Absorp. ([2]; MK library, Table 5): 470 nm
λmax Emission ([2]; MK library, Table 5): 580 nm
Compound: CCCCCC(O)c1cn(-c2ccc3n2[B-](F)(F)[N+]2=C(N4CCCC4)C=CC2=C3c2ccc(N)cc2)nn1 (centres unmarked) [MK215-69]

φ (%) ([1]; MKAC compound library): 2.56%
λmax Abs. (nm) [2]: 469 nm
λmax Em. (nm) [2]: 580 nm
Compound: CC(=O)Nc1ccc(C2=C3C=CC(N4CCc5ccccc5C4)=[N+]3[B-](F)(F)n3c2ccc3-n2cc(C3CC3)nn2)cc1 [MKAC66-4]

φ (quantum yield) ([1]; MK library, Table 5): 0.179%
λmax Absorp. ([2]; MK library, Table 5): 474 nm
λmax Emission ([2]; MK library, Table 5): 563 nm
Compound: Cc1ccccc1CNC1=[N+]2C(=C(c3ccc(N)cc3)c3ccc(-n4cc(CN(C)Cc5ccccc5)nn4)n3[B-]2(F)F)C=C1 [MK101-18]

φ (quantum yield) ([1]; BDCCA library, Table 4): 2.2%
λmax Absorp. ([2]; BDCCA library, Table 4): 462 nm
λmax Emission ([2]; BDCCA library, Table 4): 537 nm
Compound: O=C(CCl)Nc1ccc(C2=C3C=CC(N4CCCCC4)=[N+]3[B-](F)(F)n3c2ccc3-n2cc(-c3ccc(OC(F)(F)F)cc3)nn2)cc1 [BDCCA-15]

φ (%) ([1]; MKCA compound library): 34.56%
λmax Absorp. (nm) [2]: 464 nm
λmax Emission (nm) [2]: 565 nm
Compound: Cc1ccccc1CNC1=[N+]2C(=C(c3ccc(NC(=O)CCl)cc3)c3ccc(-n4cc(C5CC5)nn4)n3[B-]2(F)F)C=C1 [MKCA101-4]

φ (quantum yield) ([1]; BDCAC library, Table 3): 1.5%
λmax Absorp. ([2]; BDCAC library, Table 3): 467 nm
λmax Emission ([2]; BDCAC library, Table 3): 578 nm
Compound: CC(=O)Nc1ccc(C2=C3C=CC(N4CCCCC4)=[N+]3[B-](F)(F)n3c2ccc3-n2cc(C3CC3)nn2)cc1 [BDCAC-4]

φ (%) ([1]; MKAC compound library): 23.84%
λmax Abs. (nm) [2]: 465 nm
λmax Em. (nm) [2]: 563 nm
Compound: CC(=O)Nc1ccc(C2=C3C=CC(NCc4ccccc4C)=[N+]3[B-](F)(F)n3c2ccc3-n2cc(C3CC3)nn2)cc1 [MKAC101-4]

φ (%) ([1]; MKCA compound library): 2.19%
λmax Absorp. (nm) [2]: 468 nm
λmax Emission (nm) [2]: 585 nm
Compound: CC(C)Cc1cn(-c2ccc3n2[B-](F)(F)[N+]2=C(N4CC(C)OC(C)C4)C=CC2=C3c2ccc(NC(=O)CCl)cc2)nn1 (centres unmarked) [MKCA20-43]

φ (%) ([1]; MKAC compound library): 13.14%
λmax Abs. (nm) [2]: 465 nm
Compound: CC(=O)Nc1ccc(C2=C3C=CC(NCc4ccccc4C)=[N+]3[B-](F)(F)n3c2ccc3-n2cc(CN(C)Cc3ccccc3)nn2)cc1 [MKAC101-18]

φ (quantum yield) ([1]; BDCCA library, Table 4): 0.7%
λmax Absorp. ([2]; BDCCA library, Table 4): 468 nm
λmax Emission ([2]; BDCCA library, Table 4): 581 nm
Compound: CC(C)(C)c1cn(-c2ccc3n2[B-](F)(F)[N+]2=C(N4CCCCC4)C=CC2=C3c2ccc(NC(=O)CCl)cc2)nn1 [BDCCA-1]

φ (quantum yield) ([1]; BDCAC library, Table 3): 2.4%
λmax Absorp. ([2]; BDCAC library, Table 3): 467 nm
λmax Emission ([2]; BDCAC library, Table 3): 560 nm
Compound: CC(=O)Nc1ccc(C2=C3C=CC(N4CCCCC4)=[N+]3[B-](F)(F)n3c2ccc3-n2cc(C3CCCCC3)nn2)cc1 [BDCAC-6]

φ (quantum yield) ([1]; BDCCA library, Table 4): 2.6%
λmax Absorp. ([2]; BDCCA library, Table 4): 458 nm
λmax Emission ([2]; BDCCA library, Table 4): 556 nm
Compound: O=C(CCl)Nc1ccc(C2=C3C=CC(N4CCCCC4)=[N+]3[B-](F)(F)n3c2ccc3-n2cc(-c3cc(C(F)(F)F)cc(C(F)(F)F)c3)nn2)cc1 [BDCCA-30]

φ (quantum yield) ([1]; BDCAC library, Table 3): 1.3%
λmax Absorp. ([2]; BDCAC library, Table 3): 467 nm
λmax Emission ([2]; BDCAC library, Table 3): 585 nm
Compound: CC(=O)Nc1ccc(C2=C3C=CC(N4CCCCC4)=[N+]3[B-](F)(F)n3c2ccc3-n2cc(CC3CCCC3)nn2)cc1 [BDCAC-7]

φ (quantum yield) ([1]; BDCAC library, Table 3): 1.3%
λmax Absorp. ([2]; BDCAC library, Table 3): 467 nm
λmax Emission ([2]; BDCAC library, Table 3): 577 nm
Compound: CCCCc1cn(-c2ccc3n2[B-](F)(F)[N+]2=C(N4CCCCC4)C=CC2=C3c2ccc(NC(C)=O)cc2)nn1 [BDCAC-42]

φ (%) ([1]; MKAC compound library): 2.72%
λmax Abs. (nm) [2]: 467 nm
λmax Em. (nm) [2]: 575 nm
Compound: CCCc1cn(-c2ccc3n2[B-](F)(F)[N+]2=C(N(C)Cc4ccccc4)C=CC2=C3c2ccc(NC(C)=O)cc2)nn1 [MKAC195-48]

φ (%) ([1]; MKAC compound library): 21.83%
λmax Abs. (nm) [2]: 465 nm
λmax Em. (nm) [2]: 561 nm
Compound: CC(=O)Nc1ccc(C2=C3C=CC(NCc4cc(F)cc(F)c4)=[N+]3[B-](F)(F)n3c2ccc3-n2cc(CN(C)Cc3ccccc3)nn2)cc1 [MKAC412-18]

φ (%) ([1]; MKAC compound library): 22.19%
λmax Abs. (nm) [2]: 467 nm
λmax Em. (nm) [2]: 561 nm
Compound: CCCc1cn(-c2ccc3n2[B-](F)(F)[N+]2=C(NCc4cc(F)cc(F)c4)C=CC2=C3c2ccc(NC(C)=O)cc2)nn1 [MKAC412-48]

φ (quantum yield) ([1]; MK library, Table 5): 1.55%
λmax Absorp. ([2]; MK library, Table 5): 474 nm
λmax Emission ([2]; MK library, Table 5): 563 nm
Compound: CCCc1cn(-c2ccc3n2[B-](F)(F)[N+]2=C(NCc4cc(F)cc(F)c4)C=CC2=C3c2ccc(N)cc2)nn1 [MK412-48]

φ (quantum yield) ([1]; BDC library, Table 2): 0.12%
λmax Absorp. ([2]; BDC library, Table 2): 474 nm
λmax Emission ([2]; BDC library, Table 2): 579 nm
Compound: Nc1ccc(C2=C3C=CC(N4CCCCC4)=[N+]3[B-](F)(F)n3c2ccc3-n2cc(C3=CCCCC3)nn2)cc1 [BDC-37]
